This is an account of results in patent US8012938B2, “Dermatological and/or cosmetic composition containing polypeptides” (ISP Investments Inc., priority 2004, dated 2011).

Holding throughout (assay type): cell-based
For one assay, the system named is 3T3-L1 cells. Kind of assay: Oil red staining of lipid vacuoles of adipocytes. The note with it: 0.5% solution at 50 ppm. On the procedure:
Undifferentiated 3T3-L1 preadipocyte cell lines were seeded in 8-well Lab-Tek slides (for oil red staining), in 12-well plates (for ATP measurement), in 24-well plates (for cAMP measurement) and in 6-well plates (for glycerol measurement) as well as with DMEM culture medium (4.5 g/l) containing antibiotics. These 3T3-L1 preadipocytes were capable of entering, under certain conditions, the terminal differentiation phase.
Once the 3T3-L1 cells had reached 100% confluence, they were differentiated by putting them into culture in various mediums, over a period of 6 to 8 days.
During the first 2 days, cells were cultured in the presence of IBMX, dexamethasone, and insulin diluted in DMEM culture medium at 4.5 g/l. Then, they were cultured for two days only in the presence of insulin diluted in DMEM culture medium at 4.5 g/l and, finally, the cells were cultivated for 2 to 3 days in culture medium containing exclusively DMEM 4.5 g/l.
Cell differentiation in mature adipocytes was visualized by the appearance of lipid droplets in the cytoplasm of the cells.
The principle of this evaluative test on the effect of peptides rests on a microscopic observation of the number and size of lipid vacuoles of adipocytes after staining. Adipocytes were incubated or not in the presence of the substance to be tested.
3T3-L1 cells, seeded in 8-well Lab-Teks, were treated with the peptide of SEQ ID NO:1, i.e. of sequence Pro-Leu-Asp-Thr-Ala-Lys-Val-Arg-Leu-Gln, representative of the peptide family according to the invention, placed in a 0.5% solution at 50 ppm. The active ingredient was added at various stages of culture: • At the start of the incubation and until the end of adipocyte differentiation (72 hours of culture until 100% confluence, then for the 6 days of differentiation); • 6 hours after incubation and until the end of cell differentiation (66 hours of culture until 100% confluence, then for the 6 days of differentiation); • Once cells differentiated in the adipocytes, they were treated with the active ingredient for 6, 24, or 48 hours. […]

The subject of assay [1] is differentiated 3T3-L1 cells. Kind of assay: Measurement of intracellular cAMP. The note with it: 0.5% solution at 50 ppm; 15 minutes, 30 minutes or 1 hour; compared to cells treated with isoproterenol 1 μM. Here is the method:
The objective of this test was to measure the variation of the intracellular concentration of cAMP in adipocytes, in order to deduce a possible activation of the phenomenon of lipolysis.
The test was carried out on differentiated 3T3-L1 cells. These adipocytes were treated with the peptide of (SEQ ID NO: 1), i.e. of sequence Pro-Leu-Asp-Thr-Ala-Lys-Val-Arg-Leu-Gln, representative of the peptide family according to the invention, placed in a 0.5% solution at 50 ppm, for periods of 15 minutes, 30 minutes, or 1 hour. In parallel, differentiated 3T3-L1 cells were also treated with isoproterenol (an agent that induces lipolysis), at 1 μM, thus forming a positive control.
After the various incubation periods, in the presence of the active ingredient being tested or in the presence of isoproterenol, the quantity of cAMP contained in adipocytes was measured using the “AMP Biotrak® EIA System” kit purchased from Amersham Biosciences as well as by a test principle, colorimetric ELISA. The kit made cell lysis possible through a solution allowing for the hydrolysis of cellular membranes and the release of intracellular cAMP in the medium. Followed by the binding of antibodies specific to intracellular cAMP extracted from samples, which is placed in competition with cAMP that has been coupled to the enzyme, peroxidase.

The subject of assay [2] is differentiated 3T3-L1 cells. Put plainly: Measurement of intracellular ATP. The note with it: 0.5% solution at 50 ppm; period up to 96 hours. On the procedure:
The aim of this study was to determine the influence of the peptide according to the invention on the quantity of intracellular ATP. The study was carried out using an “ATP Bioluminescence Assay HS II” kit. Differentiated 3T3-L1 cells were treated with a 0.5% solution at 50 ppm, containing the peptide of SEQ ID NO: 1, representative of the peptide family according to the invention, for a period up to 96 hours. At the end of the incubation time, the wells were emptied of their medium and were rinsed with 2 ml of cold PBS before adding 250 μl of lysis buffer, provided by the kit. The cells were then scraped, and then collected separately in 14 ml tubes. Each well was rinsed with 2×500 μl of cold PBS and everything was again collected in the respective tubes. Each tube was then placed in the polytron for 10 seconds at 18000 rpm. From these samples, a dilution of 1/12000, using cold PBS, was carried out before each reading. ATP quantity assessment was performed on these samples: 50 μl of this dilution were placed in a luma-basin and 50 μl of […] were added. The reading of luminescence started after 10 seconds. The values were standardized compared to the quantity of proteins for each sample. Measurements were taken using a Biocounter M2010A LUMAC®/3M.

For assay [3], the system named is differentiated 3T3-L1 cells. Kind of assay: Measurement of glycerol released by adipocytes. Conditions: active ingredient at 0.5% (solution at 50 ppm); 1 h 30, 3 h, 5 h, 7 h and 24 h; versus control wells. On the procedure: The purpose of this study was to determine the influence of the peptide according to the invention on glycerol release by adipocytes, glycerol being the result of lipolysis.
Differentiated 3T3-L1 cells were treated with a 0.5% solution at 50 ppm, containing the peptide of SEQ ID NO:1, representative of the peptide family according to the invention, for periods of 1 h 30, 3 h, 5 h, 7 h and 24 h.
The concentration of glycerol was determined using a series of enzymatic reactions leading to the formation of NADH of which the produced quantity was evaluated by spectrophometric readings at 340 nm, the formation of NADH being proportional to the quantity of glycerol released in the culture medium. An internal control of 1 mM glycerol was also used. The values were standardized in comparison to the quantity of proteins for each sample.

The mark [4] stands for this setting: added at the start of incubation or 6 hours after incubation until end of differentiation, compared with control cells.

No end group written: not given here.

Consider “PLDTAKVRLQ [SEQ ID NO:1, peptide fragment from the UCP family]”, for which, in the assay with 3T3-L1 cells (setting [4]), the cell morphology entry was “less round morphology” and the “content of intra-adipocyte lipid vesicles” value is listed as “clearly decreased content of intra-adipocyte lipid vesicles”. Also, the “reduction of intra-adipocyte lipid vesicles in mature adipocytes” value with 3T3-L1 cells (applied once differentiation was completed, for 6, 24 or 48 hours) is reported as “no reduction was observed”. Moreover, the “intracellular quantity of cAMP” value in assay [1] is reported as “no increase”. For the same sequence, in assay [2], the “amount of intracellular ATP” value is recorded as “lack of increase”. Also, in assay [3], the “glycerol release by differentiated cells” value is listed as “identical”.
